Measurements from ChEMBL document CHEMBL3351950, “Synthesis of genistein coupled with sugar derivatives and their inhibitory effect on nitric oxide production in macrophages” (Eur J Med Chem, 2014).
Calls of active or inactive are those of the source. The calls are words filed in the database; no cut-off is given here.

How the values were obtained:
RAW264.7 [1] = experiment: Inhibition of nitric oxide production in LPS/IFNgamma-stimulated mouse RAW264.7 cells assessed as nitrites level at 13 uM by Griess method (reference value: 6.4 +/- 0.5 uM); type: functional
J774.A1 [2] = experiment: Inhibition of nitric oxide production in LPS/IFNgamma-stimulated mouse J774A1 cells assessed as nitrites level at 26 uM by Griess method (reference value: 16.5 +/- 1.4 uM); type: functional
RAW264.7 [3] = experiment: Inhibition of nitric oxide production in LPS/IFNgamma-stimulated mouse RAW264.7 cells assessed as nitrites level at 26 uM by Griess method (reference value: 6.4 +/- 0.5 uM); type: functional
J774.A1 [4] = experiment: Inhibition of nitric oxide production in LPS/IFNgamma-stimulated mouse J774A1 cells assessed as nitrites level at 6.5 uM by Griess method (reference value: 16.5 +/- 1.4 uM); type: functional
[5] = Cytotoxicity against LPS/IFNgamma-stimulated mouse J774A1 cells assessed as cell viability at 26 uM after 48 hrs by MTT method (reference value: 100 +/- 1.1%); type: cell-based, J774.A1; conditions: read-out: Activity
[6] = Cytotoxicity against LPS/IFNgamma-stimulated mouse J774A1 cells assessed as cell viability at 13 uM after 48 hrs by MTT method (reference value: 100 +/- 1.1%); type: cell-based, J774.A1; conditions: read-out: Activity
[7] = Cytotoxicity against LPS/IFNgamma-stimulated mouse RAW264.7 cells assessed as cell viability at 6.5 uM after 48 hrs by MTT method (reference value: 100 +/- 1.8%); type: cell-based; conditions: LPS/IFNgamma-stimulated RAW264.7 cells, read-out: Activity
[8] = Cytotoxicity against LPS/IFNgamma-stimulated mouse J774A1 cells assessed as cell viability at 6.5 uM after 48 hrs by MTT method (reference value: 100 +/- 1.1%); type: cell-based, J774.A1; conditions: read-out: Activity
J774.A1 [9] = experiment: Inhibition of nitric oxide production in LPS/IFNgamma-stimulated mouse J774A1 cells assessed as nitrites level at 13 uM by Griess method (reference value: 16.5 +/- 1.4 uM); type: functional
J774.A1 [10] = experiment: Inhibition of TNFalpha production in LPS/IFNgamma-stimulated mouse J774A1 cells assessed as TNFalpha level at 6.5 uM by ELISA method (reference value: 89.2 +/- 17.1 pg/mL); type: functional
RAW264.7 [11] = experiment: Inhibition of nitric oxide production in LPS/IFNgamma-stimulated mouse RAW264.7 cells assessed as nitrites level at 6.5 uM by Griess method (reference value: 6.4 +/- 0.5 uM); type: functional
[12] = Cytotoxicity against LPS/IFNgamma-stimulated mouse RAW264.7 cells assessed as cell viability at 26 uM after 48 hrs by MTT method (reference value: 100 +/- 1.8%); type: cell-based; conditions: LPS/IFNgamma-stimulated RAW264.7 cells, read-out: Activity
[13] = Cytotoxicity against LPS/IFNgamma-stimulated mouse RAW264.7 cells assessed as cell viability at 13 uM after 48 hrs by MTT method (reference value: 100 +/- 1.8%); type: cell-based; conditions: LPS/IFNgamma-stimulated RAW264.7 cells, read-out: Activity
RAW264.7 [14] = experiment: Inhibition of TNFalpha production in LPS/IFNgamma-stimulated mouse RAW264.7 cells assessed as TNFalpha level at 6.5 uM by ELISA method; type: functional, cell-based

Compound: O=c1c(-c2ccc(O)cc2)coc2cc(O)cc(O)c12 [GENISTEIN]
- Activity (RAW264.7 [1]): 6.3 µM
- Activity (J774.A1 [2]): 14.5 µM
- Activity (RAW264.7 [3]): 6.1 µM
- Activity (J774.A1 [4]): 13.4 µM
- viability at 48 h, 26 µM [5]: 110%
- viability at 48 h, 13 µM [6]: 104%
- viability at 48 h, 6.5 µM [7]: 128%
- viability at 48 h, 6.5 µM [8]: 112%
- Activity (J774.A1 [9]): 13.8 µM
- inhibition (J774.A1 [10]): inactive
- Activity (RAW264.7 [11]): 6.3 µM
- viability at 48 h, 26 µM [12]: 108%
- viability at 48 h, 13 µM [13]: 103%

Compound: CO[C@H]1O[C@H](COc2cc(O)c3c(=O)c(-c4ccc(O)cc4)coc3c2)[C@@H](OC(C)=O)[C@H](OC(C)=O)[C@H]1OC(C)=O
- Activity (RAW264.7 [1]): 4.2 µM
- Activity (J774.A1 [2]): 10.4 µM
- inhibition (RAW264.7 [14]): inactive
- Activity (RAW264.7 [3]): 2.4 µM
- Activity (J774.A1 [4]): 12.7 µM
- viability at 48 h, 26 µM [5]: 87.4%
- viability at 48 h, 13 µM [6]: 92.7%
- viability at 48 h, 6.5 µM [7]: 103%
- viability at 48 h, 6.5 µM [8]: 94.7%
- Activity (J774.A1 [9]): 13.1 µM
- Activity (J774.A1 [10]): 51.7 pg/mL
- Activity (RAW264.7 [11]): 2.1 µM
- viability at 48 h, 26 µM [12]: 103%
- viability at 48 h, 13 µM [13]: 104%

Compound: CC1(C)O[C@H]2[C@@H](O1)[C@@H](COc1ccc(-c3coc4cc(OC[C@H]5O[C@@H]6OC(C)(C)O[C@@H]6[C@H]6OC(C)(C)O[C@H]65)cc(O)c4c3=O)cc1)O[C@@H]1OC(C)(C)O[C@@H]12
- Activity (RAW264.7 [1]): 2.7 µM
- Activity (J774.A1 [2]): 12.3 µM
- inhibition (RAW264.7 [14]): inactive
- Activity (RAW264.7 [3]): 2.4 µM
- Activity (J774.A1 [4]): 9.8 µM
- viability at 48 h, 26 µM [5]: 83.6%
- viability at 48 h, 13 µM [6]: 87.3%
- viability at 48 h, 6.5 µM [7]: 98.9%
- viability at 48 h, 6.5 µM [8]: 89.7%
- Activity (J774.A1 [9]): 11.8 µM
- inhibition (J774.A1 [10]): inactive
- Activity (RAW264.7 [11]): 2.6 µM
- viability at 48 h, 26 µM [12]: 94.4%
- viability at 48 h, 13 µM [13]: 89.4%

Compound: CO[C@H]1O[C@H](COc2cc(O)c3c(=O)c(-c4ccc(O)cc4)coc3c2)[C@@H](O)[C@H](O)[C@H]1O
- Activity (RAW264.7 [1]): 1 µM
- Activity (J774.A1 [2]): 14.3 µM
- inhibition (RAW264.7 [14]): inactive
- Activity (RAW264.7 [3]): 1.7 µM
- Activity (J774.A1 [4]): 7.2 µM
- viability at 48 h, 26 µM [5]: 44.9%
- viability at 48 h, 13 µM [6]: 64.3%
- viability at 48 h, 6.5 µM [7]: 91.3%
- viability at 48 h, 6.5 µM [8]: 68.1%
- Activity (J774.A1 [9]): 11.3 µM
- inhibition (J774.A1 [10]): inactive
- Activity (RAW264.7 [11]): 1.4 µM
- viability at 48 h, 26 µM [12]: 78.3%
- viability at 48 h, 13 µM [13]: 88.1%

Compound: O=c1c(-c2ccc(O)cc2)coc2cc(OC[C@H]3O[C@H](O)[C@H](O)[C@@H](O)[C@H]3O)cc(O)c12
- Activity (RAW264.7 [1]): 0 µM
- Activity (J774.A1 [2]): 9.1 µM
- inhibition (RAW264.7 [14]): inactive
- Activity (RAW264.7 [3]): 0 µM
- Activity (J774.A1 [4]): 9.7 µM
- viability at 48 h, 26 µM [5]: 88.9%
- viability at 48 h, 13 µM [6]: 95.2%
- viability at 48 h, 6.5 µM [7]: 95.9%
- viability at 48 h, 6.5 µM [8]: 93.6%
- Activity (J774.A1 [9]): 10.9 µM
- Activity (J774.A1 [10]): 38.3 pg/mL
- Activity (RAW264.7 [11]): 1.4 µM
- viability at 48 h, 26 µM [12]: 95.8%
- viability at 48 h, 13 µM [13]: 98.2%

Compound: CO[C@H]1O[C@H](COc2ccc(-c3coc4cc(OC[C@H]5O[C@H](OC)[C@H](OC(C)=O)[C@@H](OC(C)=O)[C@@H]5OC(C)=O)cc(O)c4c3=O)cc2)[C@@H](OC(C)=O)[C@H](OC(C)=O)[C@H]1OC(C)=O
- Activity (RAW264.7 [1]): 2.5 µM
- Activity (J774.A1 [2]): 11.7 µM
- inhibition (RAW264.7 [14]): inactive
- Activity (RAW264.7 [3]): 4.1 µM
- Activity (J774.A1 [4]): 11.5 µM
- viability at 48 h, 26 µM [5]: 87.9%
- viability at 48 h, 13 µM [6]: 86.7%
- viability at 48 h, 6.5 µM [7]: 103%
- viability at 48 h, 6.5 µM [8]: 82.1%
- Activity (J774.A1 [9]): 12.1 µM
- Activity (J774.A1 [10]): 51.9 pg/mL
- Activity (RAW264.7 [11]): 1.9 µM
- viability at 48 h, 26 µM [12]: 101%
- viability at 48 h, 13 µM [13]: 98.4%

Compound: CO[C@H]1O[C@H](COc2ccc(-c3coc4cc(OC[C@H]5O[C@H](OC)[C@H](O)[C@@H](O)[C@@H]5O)cc(O)c4c3=O)cc2)[C@@H](O)[C@H](O)[C@H]1O
- Activity (RAW264.7 [1]): 0 µM
- Activity (J774.A1 [2]): 8.5 µM
- inhibition (RAW264.7 [14]): inactive
- Activity (RAW264.7 [3]): 0 µM
- Activity (J774.A1 [4]): 8.7 µM
- viability at 48 h, 26 µM [5]: 94.8%
- viability at 48 h, 13 µM [6]: 96.6%
- viability at 48 h, 6.5 µM [7]: 93.6%
- viability at 48 h, 6.5 µM [8]: 99.9%
- Activity (J774.A1 [9]): 9.1 µM
- inhibition (J774.A1 [10]): inactive
- Activity (RAW264.7 [11]): 0 µM
- viability at 48 h, 26 µM [12]: 92.2%
- viability at 48 h, 13 µM [13]: 99.2%

Compound: CC1(C)O[C@H]2[C@@H](O1)[C@@H](COc1cc(O)c3c(=O)c(-c4ccc(O)cc4)coc3c1)O[C@@H]1OC(C)(C)O[C@@H]12
- Activity (RAW264.7 [1]): 2.5 µM
- Activity (J774.A1 [2]): 0.7 µM
- inhibition (RAW264.7 [14]): inactive
- Activity (RAW264.7 [3]): 3.1 µM
- Activity (J774.A1 [4]): 17.7 µM
- viability at 48 h, 26 µM [5]: 30.3%
- viability at 48 h, 13 µM [6]: 85.5%
- viability at 48 h, 6.5 µM [7]: 87.6%
- viability at 48 h, 6.5 µM [8]: 102%
- Activity (J774.A1 [9]): 12.8 µM
- inhibition (J774.A1 [10]): inactive
- Activity (RAW264.7 [11]): 2.4 µM
- viability at 48 h, 26 µM [12]: 71.3%
- viability at 48 h, 13 µM [13]: 88.1%
